Assay results from patent US20070249670A1, “Glycogen Phosphorylase Inhibitor Compounds and Pharmaceutical Compositions Thereof” (SMITHKLINE BEECHAM CORPORATION, priority 2004, published 2007).

target: T1, human liver glycogen phosphorylase a (HLGPa) (Homo sapiens, UniProt P06737); test: Human liver glycogen phosphorylase a enzymatic activity assay (coupled, fluorescent resorufin readout, with and without 10 mM glucose); assay type: biochemical; details: human liver glycogen phosphorylase a enzymatic activity assay
T1 construct: creating a full-length cDNA fused at the 5′ end to codons for methionine-glycine-alanine-histidine; 6xHis tag (leader Met-Gly-Ala-His6-Gly-Gly) (N); made in house; host or cells: E. coli (bacterial expression plasmid pTXK1007LTev)
T1 sequence (P06737 2-847 limits assumed): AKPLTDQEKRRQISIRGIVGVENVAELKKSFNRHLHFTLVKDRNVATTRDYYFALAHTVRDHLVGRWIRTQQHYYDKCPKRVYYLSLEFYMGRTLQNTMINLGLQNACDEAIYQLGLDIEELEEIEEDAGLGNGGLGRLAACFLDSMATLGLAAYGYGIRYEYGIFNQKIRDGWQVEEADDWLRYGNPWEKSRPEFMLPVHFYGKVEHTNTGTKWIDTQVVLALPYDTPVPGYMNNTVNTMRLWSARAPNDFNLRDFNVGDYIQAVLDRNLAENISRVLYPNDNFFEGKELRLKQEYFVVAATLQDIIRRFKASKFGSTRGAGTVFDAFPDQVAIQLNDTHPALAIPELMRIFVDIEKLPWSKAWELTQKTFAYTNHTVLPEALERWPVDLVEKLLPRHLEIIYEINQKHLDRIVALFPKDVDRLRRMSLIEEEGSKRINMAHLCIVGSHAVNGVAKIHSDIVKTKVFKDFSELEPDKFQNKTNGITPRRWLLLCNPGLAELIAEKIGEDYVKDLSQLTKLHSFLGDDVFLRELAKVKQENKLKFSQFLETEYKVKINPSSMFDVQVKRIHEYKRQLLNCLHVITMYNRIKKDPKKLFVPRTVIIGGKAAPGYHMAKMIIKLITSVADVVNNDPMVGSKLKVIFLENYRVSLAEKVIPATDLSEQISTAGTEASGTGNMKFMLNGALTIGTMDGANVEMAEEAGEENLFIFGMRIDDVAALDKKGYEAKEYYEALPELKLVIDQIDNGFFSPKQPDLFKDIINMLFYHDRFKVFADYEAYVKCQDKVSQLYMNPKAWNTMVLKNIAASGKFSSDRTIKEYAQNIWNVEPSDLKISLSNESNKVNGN

Row | Compound | IC50 [nM]
1 | Cc1cc(C)c(NC(=O)Nc2cc(-c3ccc(F)cc3)ccc2C(=O)N[C@H](C(=O)O)[C@@H](C)OC(C)(C)C)c(C)c1 [Example 527, O-(1,1-Dimethylethyl)-N-{[4′-fluoro-3-({[(2,4,6-trimethylphenyl)amino]carbonyl}amino)-4-biphenylyl]carbonyl}-L-threonine] | 3
2 | Cc1cc(C)c(NC(=O)Nc2cc(-c3ccccc3)ccc2C(=O)N[C@H](C(=O)O)[C@@H](C)OC(C)(C)C)c(C)c1 [Example 528, O-(1,1-Dimethylethyl)-N-{[3-({[(2,4,6-trimethylphenyl)amino]carbonyl}amino)-4-biphenylyl]carbonyl}-L-threonine] | 3
3 | Cc1cc(C2CC2)cc(C)c1NC(=O)Nc1cc(-c2cccc(F)c2)ccc1C(=O)N[C@H](C(=O)O)[C@@H](C)OC(C)(C)C [Example 530, N-{[3-({[(4-Cyclopropyl-2,6-dimethylphenyl)amino]carbonyl}amino)-3′-fluoro-4-biphenylyl]carbonyl}-O-(1,1-dimethylethyl)-L-threonine] | 21
4 | Cc1cc(C)c(NC(=O)Nc2cc(-c3cc(F)c(F)c(F)c3)sc2C(=O)NC2(C(=O)O)CCCCC2)c(C)c1 [Example 535, 1-({[5-(3,4,5-trifluorophenyl)-3-({[(2,4,6-trimethylphenyl)amino]carbonyl}amino)-2-thienyl]carbonyl}amino) cyclohexanecarboxylic acid] | 206

The next lines start with the values.

Row | IC50 [nM] | Compound
5 | 2 | Cc1cc(C)c(NC(=O)Nc2cc(-c3ccccc3)ccc2C(=O)NC2(C(=O)O)CCCCCCC2)c(C)c1 [Example 529, 1-({[3-({[(2,4,6-Trimethylphenyl)amino]carbonyl}amino)-4-biphenylyl]carbonyl}amino)cyclooctanecarboxylic acid]
6 | 19 | Cc1cc(C2CC2)cc(C)c1NC(=O)Nc1c(C(=O)N[C@H](C(=O)O)C2CCCCC2)ccc2ccccc12 [Example 531]
7 | 11 | COc1ccc(-c2ccc(C(=O)N[C@H](C(=O)O)[C@@H](C)OC(C)(C)C)c(NC(=O)Nc3c(C)cc(C4CC4)cc3C)c2)cc1 [Example 532, N-{[3-({[(4-cyclopropyl-2,6-dimethylphenyl)amino]carbonyl}amino)-4′-(methyloxy)-4-biphenylyl]carbonyl}-O-(1,1-dimethylethyl)-L-threonine]
8 | 3 | Cc1cc(C)c(NC(=O)Nc2cc(-c3ccc(Cl)cc3)sc2C(=O)NC2(C(=O)O)CCCCC2)c(C)c1 [Example 533, 1-({[5-(4-Chlorophenyl)-3-({[(2,4,6-trimethylphenyl)amino]carbonyl}amino)-2-thienyl]carbonyl}amino)cyclohexanecarboxylic acid]
9 | 104 | Cc1cc(C)c(NC(=O)Nc2cc(-c3ccc(F)c(F)c3)sc2C(=O)NC2(C(=O)O)CCCCC2)c(C)c1 [Example 534, 1-({[5-(3,4-difluorophenyl)-3-({[(2,4,6-trimethylphenyl)amino]carbonyl}amino)-2-thienyl]carbonyl}amino)cyclohexanecarboxylic acid]
